Results as given in US20150258129A1, “Method for Increasing the Activity of Lysosomal Enzymes” (Mount Sinai School of Medicine of New York University, priority 1998, published 2015).
Where a chain is given by its changes, count along the chain named. pIC50, pKi: −log10 of the molar value.

What was measured:
[1] = system: lysosomal acid β-galactosidase (β-Gal); assay: Intracellular enhancement of β-Gal activity in GM1-gangliosidosis fibroblasts; format: cell-based, human; settings: for β-Gal enhancement effect in fibroblasts of infant type disease (BGF-1 and BGF-6): DGJ 500 μM, 4-epi-isofagomine 50 μM; for intracellular β-Gal activity in GM1-gangliosidosis fibroblasts (summary): concentration ranges of 50-500 μM
Method: In FIG. 7A, GM1-gangliosidosis fibroblasts were cultured with DGJ (4) at 500 μM for 5 days before being collected for enzyme assay. In FIG. 7B, GM1-gangliosidosis fibroblasts were cultured with 4-epi-isofagomine (21) at 50 μM for 5 days before being collected for enzyme assay. Strains BGF-1 and BGF-6 were diagnosed as infantile type, and all others were juvenile or adult types.
(§1) The Epstein-Barr virus-transformed lymphoblast lines from a normal adult and a Fabry patient with R301Q mutation in α-Gal A (38) were cultured in RPMI-1640 medium (Nissui Pharmaceutical Co., Tokyo, Japan) supplemented with 10% fetal calf serum (FCS) at 37° C. under 5% CO2. Human fibroblasts from Gaucher and GM1-gangliosidosis patients were cultured in McCoy 5A medium supplemented with 10% FCS at 37° C. under 5% CO2.
(§2) Cells were cultured in the presence or absence of inhibitor for 5 days. After being washed twice with PBS, the cells were harvested and homogenized in 200 μl of H2O, and 10 μl of the supernatant obtained by centrifugation at 10,000 g was incubated at 37° C. with 50 μl of the substrate solution of 1 mM 4-methylumbelliferyl β-D-galactoside (4-MU-β-Gal) in 0.1 M citrate buffer (pH 4.5) for enzyme assay. One unit of intracellular enzyme activity was defined as one nmol of 4-methylumbelliferone released per hour at 37° C.

[2] = target: T1, mutant α-Gal A (R301Q) (Homo sapiens, UniProt P06280, R301Q); assay: Intracellular enhancement of α-Gal A activity in Fabry lymphoblasts; format: cell-based; set-up: endogenous in cells; host or cells: Epstein-Barr virus-transformed lymphoblasts from a Fabry patient (R301Q); settings: for intracellular α-Gal A activity in Fabry lymphoblasts (summary): concentration ranges of 10-1000 μM; for α-Gal A activity in R301Q lymphoblasts with increasing concentration of calystegine compound: range 100-1000 μM, FIG. 6; for increase of α-Gal A enzyme activity in R301Q lymphoblasts: inhibitor at 100 μM
T1 sequence (P06280 32-429 R301Q): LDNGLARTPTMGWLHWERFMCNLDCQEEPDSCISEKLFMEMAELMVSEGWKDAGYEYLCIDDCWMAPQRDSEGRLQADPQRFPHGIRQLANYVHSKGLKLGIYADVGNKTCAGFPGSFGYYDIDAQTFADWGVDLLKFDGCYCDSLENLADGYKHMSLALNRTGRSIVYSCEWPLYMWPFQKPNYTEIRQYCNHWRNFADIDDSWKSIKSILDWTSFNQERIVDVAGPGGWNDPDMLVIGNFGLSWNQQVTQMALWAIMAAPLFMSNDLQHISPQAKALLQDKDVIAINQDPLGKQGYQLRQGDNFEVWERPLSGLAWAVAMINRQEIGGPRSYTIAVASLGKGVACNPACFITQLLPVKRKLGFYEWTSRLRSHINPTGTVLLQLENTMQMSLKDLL
Method: FIG. 4B depicts results in which each inhibitor was added to the culture medium of R301Q lymphoblasts at a concentration of 100 μM. Cells were subsequently incubated for 4 days. After being washed twice with phosphate-buffered saline, the intracellular enzyme activity was determined with 4-MU-α-Gal as the substrate.
R301Q lymphoblasts were cultured with DGJ (4) ([…]), α-allo-HNJ (9) (▪), α-galacto-HNJ (10) (▴), or β-1-C-butyl-DGJ (16) (♦) at 1-1000 μM for 4 days before being collected for enzyme assay.
In FIG. 6B, R301Q lymphoblasts were cultured with calystegine B2 (18) and the results are shown therein. In FIG. 6C, R301Q lymphoblasts were cultured with N-methyl calystegine A3 (19) and the results are shown therein. In FIG. 6D R301Q lymphoblasts were cultured with N-methyl calystegine B2 (20) at 100-1000 μM for 4 days before being collected for enzyme assay and the results are shown therein.
as §1
as §2, with “for 4” for “for 5”, “with phosphate-buffered saline (PBS),” for “with PBS,”, “solution composed by 6” for “solution of 1”, “4-methylumbelliferyl α-D-galactoside (4-MU-α-Gal) and 90 mM N-acetylgalactosamine” for “4-methylumbelliferyl β-D-galactoside (4-MU-β-Gal)”

[3] = target: human β-glucocerebrosidase (Homo sapiens, UniProt P04062); assay: In vitro inhibition of human β-glucocerebrosidase; format: biochemical; settings: 0.1M citrate buffer (pH 5.2), 4-MU-β-Glu as substrate
human β-glucocerebrosidase, sequence (P04062 40-536): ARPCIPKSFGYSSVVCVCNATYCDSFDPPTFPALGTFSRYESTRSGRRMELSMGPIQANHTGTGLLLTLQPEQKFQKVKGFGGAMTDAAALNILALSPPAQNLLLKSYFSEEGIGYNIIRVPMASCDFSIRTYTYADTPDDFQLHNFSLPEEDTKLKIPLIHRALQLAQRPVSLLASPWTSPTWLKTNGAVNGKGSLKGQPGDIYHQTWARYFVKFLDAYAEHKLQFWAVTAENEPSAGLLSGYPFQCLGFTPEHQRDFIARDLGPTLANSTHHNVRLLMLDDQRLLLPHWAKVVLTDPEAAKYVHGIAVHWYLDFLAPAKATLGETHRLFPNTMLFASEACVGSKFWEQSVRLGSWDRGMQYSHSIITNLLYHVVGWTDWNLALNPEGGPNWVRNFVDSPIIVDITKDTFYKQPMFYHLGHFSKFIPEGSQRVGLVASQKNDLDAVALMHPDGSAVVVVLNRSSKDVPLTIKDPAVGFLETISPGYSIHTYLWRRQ

[4] = target: T2, glucocerebrosidase (β-Glu), N370S/N370S (Homo sapiens, UniProt P04062, N409S); assay: Intracellular enhancement of β-Glu activity in Gaucher fibroblasts (N370S/N370S); format: cell-based; settings: concentration ranges of 0.05-100 μM
T2 construct: endogenous in cells; host or cells: human Gaucher patient fibroblasts, genotype N370S/N370S
T2 sequence (P04062 40-536 N409S): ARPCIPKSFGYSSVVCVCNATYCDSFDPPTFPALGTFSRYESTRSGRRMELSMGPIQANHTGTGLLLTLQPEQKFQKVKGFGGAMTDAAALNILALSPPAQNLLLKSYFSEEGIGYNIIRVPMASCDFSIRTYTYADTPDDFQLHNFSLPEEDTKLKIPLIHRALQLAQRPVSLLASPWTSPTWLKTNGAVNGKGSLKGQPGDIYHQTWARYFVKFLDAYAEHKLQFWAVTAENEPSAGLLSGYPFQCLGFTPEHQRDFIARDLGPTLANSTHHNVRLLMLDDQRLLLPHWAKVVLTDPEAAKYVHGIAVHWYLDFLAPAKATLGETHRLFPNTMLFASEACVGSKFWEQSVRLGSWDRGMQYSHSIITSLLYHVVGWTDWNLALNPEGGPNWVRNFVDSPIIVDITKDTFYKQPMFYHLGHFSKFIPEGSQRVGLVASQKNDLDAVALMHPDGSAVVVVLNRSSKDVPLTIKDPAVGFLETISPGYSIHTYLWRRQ

[5] = target: T3, glucocerebrosidase (β-Glu), L444P/L444P (Homo sapiens, UniProt P04062, L483P); assay: Intracellular enhancement of β-Glu activity in Gaucher fibroblasts (L444P/L444P); format: cell-based; settings: 10 μM, 5 days
T3 construct: endogenous in cells; host or cells: human Gaucher patient fibroblasts, genotype L444P/L444P
T3 sequence (P04062 40-536 L483P): T2 sequence (P04062 40-536 N409S) with S370N, L444P

[6] = target: T1, mutant α-Gal A (R301Q); set-up: endogenous in cells; host or cells: Epstein-Barr virus-transformed lymphoblasts from a Fabry patient (R301Q); settings: R301Q or Q279E mutations; cited from earlier work
[7] = system: globotriaosylceramide metabolism; assay: Intracellular globotriaosylceramide metabolism with inhibitor in the medium; format: cell-based; settings: 20 μM in the medium
[8] = target: T4, human lysosomal α-Gal A (Homo sapiens, UniProt P06280); assay: In vitro inhibition of α-Gal A (recombinant, expressed in Sf-9 insect cells); format: biochemical
T4 construct: made in house; host or cells: Sf-9 insect cells, recombinant baculovirus
T4 sequence (P06280 32-429): T1 sequence (P06280 32-429 R301Q) with Q270R

[9] = target: T1, mutant α-Gal A (R301Q); settings: neutral pH; cited from earlier work
[10] = target: coffee bean α-galactosidase (Coffea arabica, UniProt Q42656); settings: cited from earlier work
coffee bean α-galactosidase, sequence (Q42656 16-378): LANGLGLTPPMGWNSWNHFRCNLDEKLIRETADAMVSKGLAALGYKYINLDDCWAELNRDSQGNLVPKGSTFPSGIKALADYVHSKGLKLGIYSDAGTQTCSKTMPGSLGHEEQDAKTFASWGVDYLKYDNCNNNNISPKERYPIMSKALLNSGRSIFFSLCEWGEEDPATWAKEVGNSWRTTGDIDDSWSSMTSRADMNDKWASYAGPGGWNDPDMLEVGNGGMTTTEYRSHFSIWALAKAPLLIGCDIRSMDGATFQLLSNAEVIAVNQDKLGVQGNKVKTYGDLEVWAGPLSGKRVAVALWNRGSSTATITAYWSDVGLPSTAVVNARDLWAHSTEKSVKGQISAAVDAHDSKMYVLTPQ

[11] = target: T5, mutant (R301Q) α-Gal A (Homo sapiens, UniProt P06280, R301Q); settings: oral administration, mice overexpressing mutant (R301Q) α-Gal A; cited from earlier work
T5 construct: host or cells: transgenic mice (organs)
T5 sequence (P06280 32-429 R301Q): T1 sequence (P06280 32-429 R301Q)

OC[C@H]1CNC[C@@H](O)[C@H]1O [compound 21, 4-epi-isofagomine]
β-Gal enhancement effect in fibroblasts of infant type disease (BGF-1 and BGF-6) ([1]; 5 days): not efficient
intracellular β-Gal activity in GM1-gangliosidosis fibroblasts (summary) [1]: effectively enhance
intracellular β-Gal activity elevated to, % of normal ([1]; fibroblasts of juvenile and adult types, 5 days, FIG. 7B (50 μM)): 9-53 % of normal

O[C@@H]1[C@@H](O)[C@H](O)[C@]2(O)CC[C@H]1N2 [compound 18, calystegine B2]
intracellular α-Gal A activity in Fabry lymphoblasts (summary) [2]: effectively increase
α-Gal A activity in R301Q lymphoblasts with increasing concentration of calystegine compound ([2]; 4 days): elevated with increasing concentration
pIC50 [3]: 6.00
intracellular β-Glu activity in Gaucher fibroblasts (summary) [4]: effectively enhance
increase of residual β-Glu activity in Gaucher fibroblasts [5]: 230%

O[C@@H]1C[C@]2(O)N[C@H]1C[C@@H](O)[C@@H]2O [calystegine B1]
increase of residual β-Glu activity in Gaucher fibroblasts [5]: 76%

O[C@@H]1C[C@H]2CC[C@](O)(N2)[C@H]1O [compound 17, Calystegine A3]
intracellular α-Gal A activity in Fabry lymphoblasts (summary) [2]: effectively increase
α-Gal A activity in R301Q lymphoblasts with increasing concentration of calystegine compound ([2]; 4 days): elevated with increasing concentration
pIC50 [3]: 5.51
intracellular β-Glu activity in Gaucher fibroblasts (summary) [4]: effectively enhance
increase of residual β-Glu activity in Gaucher fibroblasts [5]: 126%

O[C@@H]1[C@@H](O)[C@H](O)[C@]2(O)C[C@@H](O)[C@H]1N2 [calystegine C1]
increase of residual β-Glu activity in Gaucher fibroblasts [5]: 136%

OC[C@H]1NC[C@H](O)[C@@H](O)[C@H]1O [compound 4, 1-Deoxygalactonojirimycin]
α-Gal A enzyme activity in R301Q lymphoblasts reached, % of normal ([2]; 100 μM, 4 days): 49 % of normal
increase of α-Gal A enzyme activity in R301Q lymphoblasts ([2]; 4 days): about 14 fold
α-Gal A activity in R301Q lymphoblasts with increasing inhibitor concentration ([2]; range 1-100 μM, FIG. 5): elevated with increasing inhibitor concentration
mutant enzyme activity in lymphoblasts from Fabry patients [6]: enhanced the mutant enzyme activity
intracellular inhibition of globotriaosylceramide metabolism [7]: did not cause intracellular inhibition
inhibition mode toward α-Gal A (Lineweaver-Burk plots) [8]: competitive inhibitors
increase of residual β-Gal activity in BGF-7 fibroblasts ([1]; 500 μM, 5 days, FIG. 7A): 27 fold
β-Gal enhancement effect in fibroblasts of infant type disease (BGF-1 and BGF-6) ([1]; 5 days): not efficient
intracellular β-Gal activity in GM1-gangliosidosis fibroblasts (summary) [1]: effectively enhance
in vitro stability of mutant α-Gal A (R301Q) [9]: effectively increased in vitro stability
inhibition of coffee bean α-galactosidase (in words) [10]: extremely powerful inhibitor
enzyme activity in major organs of transgenic mice [11]: substantially elevated the enzyme activity

CCCCC1NC(CO)C(O)C(O)C1O (stereo not drawn) [compound 16, β-1-C-Butyl-deoxygalactonojirimycin]
intracellular α-Gal A activity in Fabry lymphoblasts (summary) [2]: effectively increase
increase of α-Gal A enzyme activity in R301Q lymphoblasts ([2]; 4 days): 2.3 fold
enhancement of α-Gal A activity in R301Q lymphoblasts ([2]; inhibitor at 1000 μM, 4 days): 6.3 fold
inhibition mode toward α-Gal A (Lineweaver-Burk plots) [8]: competitive inhibitors
pKi ([8]; p-nitrophenyl-α-D-galactopyranoside as substrate, read-out: Ki for α-Gal A, from the slope of Lineweaver-Burk plots): 4.80
pIC50 ([8]; read-out: IC30 and (Ki)*: IC50 values (inhibitor concentration giving 50% inhibition) for α-Gal A, p-nitrophenyl-α-D-galactopyranoside as substrate, pH 4.5): 4.62
pIC50 [10]: 6.15
